Experimental data as given in publication PMC6156508, “GA-Hecate antiviral properties on HCV whole cycle represent a new antiviral class and open the door for the development of broad spectrum antivirals” (Scientific Reports, 2018).
Where a SMILES comes first, the peptide text is derived from it. The star is where a group is joined. Galloyl = O=C(c1cc(O)c(O)c(O)c1)*

Columns and labels:
[1] = tested on: HCVcc particles released from treated cells, naïve Huh-7.5 cells; experiment: Infectivity assay of released particles (focus forming units); type: cell-based, hepatitis C virus
Method: Figure 6 GA-Hecate effect on HCV Release and infectivity. (A) HCV-infected Huh-7.5 cells were treated for 24 h with GA-Hecate. RNA was isolated and summited to qPCR for HCV 5′ UTR. Intracellular HCV expression was normalized by GAPDH, and extracellular HCV expression was calculated by absolute quantification. The difference between the intra and extracellular RNA expression represents the HCV release. Bars represent triplicate samples of three independent assays. Naringenin (200 μM) was used as a positive control of HCV release inhibition and water was a negative control of HCV release inhibition. ^aP < 0.001 vs Control (−), intracellular. ^bP < 0.001 vs Control (−), extracellular. F = 22.58, df (row factor) = 4. (B) Infectivity. HCV-infected Huh-7.5 cells were treated for 24 h with GA-Hecate, and then the supernatant was collected and used to infect naïve Huh-7.5 cells. The capacity of HCVcc particles to generate a new infection after GA-Hecate treatment is represented by the bars. […]
To assess the effect of GA-Hecate on HCV virion infectivity, a similar process to release/assembly was done and the supernatant (extracellular content) was collected and used to infect naïve Huh-7.5 cells. HCV infectivity was evaluated by the focus forming units assay, following an indirect immunofluorescence (IFI) assay for HCV NS5A as previously described by Batista et al.[35].

[2] = Permeabilization of LUVs, carboxyfluorescein release (viral envelope/cell membrane mimetic); settings: POPC:POPS 9:1
Excerpt: Figure 8 Permeabilization of LUVs. (A) Percentage of carboxyfluorescein release in POPC:POPS (9:1) Post addition of LUVs at different concentrations of Hecate and GA-Hecate. (B) Percentage of carboxyfluorescein release results in POPC:Cholesterol (9:1) LUVs after the addition of different concentrations of Hecate and GA-Hecate. The bars indicate SD.
Phosphatidylcholine:Cholesterol (POPC:Cholesterol - 9:1; m:m) and phosphatidylcholine:phosphatidylserine (POPC:POPS - 9:1; m:m) vesicles, which mimic lipid droplets and the virus envelope, respectively, were prepared at a concentration of 15 mmol·L^−1. Each mixture was submitted to lipid solubilization in chloroform/methanol (4:1; v:v) and subsequent evaporation by nitrogen gas flow, resulting in the formation of a lipid film. The product evaporated using a vacuum procedure for complete removal of the solvents and then a solution containing the fluorophore carboxyfluorescein (CF; 50 mM) was added. The mixture was warmed up to 60 °C, sonicated and agitated for equal periods for 10 min to allow for the formation of vesicles encapsulated with CF. Following this, the mixture was processed in an extruder machine (Avanti Polar Lipids) to obtain large unilamellar vesicles. The obtained solution was then applied to a size exclusion column with Sephadex G20 resin for separation of the unencapsulated CF. […]

HCV JFH1 3' UTR dsRNA = experiment: dsRNA intercalation assay (agarose gel); type: binding, hepatitis C virus; settings: peptide 20 μM; 45 min; 1% agarose gel
Excerpt: scans, with a resolution of 0.2 nm. To investigate the conformational changes by the membrane environments, the data were obtained in vesicles containing POPC:POPS (9:1), and POPC:Cholesterol (9:1). CD spectra were typically recorded as an average of the eight scans that were obtained in millidegrees and converted to molar ellipticity [θ] in deg·cm2·dmol-1. The peptide concentration was 10 μmol·L-1, and the proportion of lipid/peptide was 100 (L/P = 100).
Effect of peptides on dsRNA intercalation assay
To assess GA-Hecate’s dsRNA intercalation capacity, we performed an assay adapted from Krawczyk et al. 2009. Initially, a PCR reaction was made and the HCV JFH1 3’ untranslated region (UTR) (accession no. AB047639) was amplified by specific primers flanked by a T7 promoter sequence (F
273 bp, was purified using a ZymocleanTM Gel DNA recovery Kit (Zymo Research) and used as a template for in vitro dsRNA production using a T7 Ribomax Express kit (Promega). […] GA-Hecate, Hecate and Lys-Hecate (20 μM) were incubated with […] of dsRNA, for 45 min, and subsequently analysed in 1% agarose gel 1X TAE stained with ethidium bromide. […]
In order to guarantee that the virus inhibition effect was not related exclusively to cell death trigger, all concentrations were evaluated to necrosis and apoptosis induction. […]

SMILES: CC(C)C[C@H](NC(=O)[C@H](C)NC(=O)[C@H](CCCCN)NC(=O)[C@H](CCCCN)NC(=O)[C@H](CC(C)C)NC(=O)[C@H](C)NC(=O)[C@H](CCCCN)NC(=O)[C@H](CCCCN)NC(=O)[C@H](CC(C)C)NC(=O)[C@H](CCCCN)NC(=O)[C@H](CCCCN)NC(=O)[C@H](CC(C)C)NC(=O)[C@H](C)NC(=O)[C@H](CCCCN)NC(=O)[C@H](CCCCN)NC(=O)[C@H](CC(C)C)NC(=O)[C@H](C)NC(=O)[C@H](CCCCN)NC(=O)[C@H](CC(C)C)NC(=O)[C@H](C)NC(=O)[C@H](CC(C)C)NC(=O)[C@H](C)NC(=O)[C@H](Cc1ccccc1)NC(=O)c1cc(O)c(O)c(O)c1)C(N)=O [GA-Hecate] (Galloyl-FALALKALKKALKKLKKALKKAL-NH2)
- infection inhibition by released particles (infectivity) ([1]; 20 μM, supernatant of cells treated 24 h on naïve Huh-7.5): approximately 100%
- share of released HCV able to generate a new infection ([1]; supernatant of GA-Hecate-treated cells): less than 1%
- interaction capacity relative to Hecate (fold lower) [2]: 2- to 3 fold
- permeabilization of LUVs (carboxyfluorescein release) ([2]; peptide 0.1 μM, 1% Triton = 100%, once in triplicate): ~20%
- intercalation in HCV dsRNA (HCV JFH1 3' UTR dsRNA): able to intercalate in HCV dsRNA
